Data published in article PMC7582905, “Effect of Disulfide Cyclization of Ultrashort Cationic Lipopeptides on Antimicrobial Activity and Cytotoxicity” (International Journal of Molecular Sciences, 2020).
Like-named read-outs stand apart in the source and are kept apart here. Where a SMILES comes first, the peptide text is derived from it. Bridges are numbered along the chain shown (N, C = ends). The star is where a group is joined. Palmitoyl = CCCCCCCCCCCCCCCC(=O)*

Key:
[1] = RP-HPLC determination of peptide hydrophobicity; format: physicochemical; details: 0.1% TFA; for reduced retention time t’R: RP-HPLC retention as measure of hydrophobicity, Waters X-Bridge Shield RP-18 3.0 × 100 mm, 3.5 μm, linear 20–65% acetonitrile in water over 30 min, 0.5 mL/min, 25.0 °C, UV 214 nm, 1 g/L, triplicate; for ∆tR: tR of cyclic analog − tR of parent lipopeptide, RP-HPLC, RP-18, 20–65% acetonitrile over 30 min
Procedure: The peptides were analyzed by RP-HPLC to determine relative hydrophobicity vs. retention time of each compound. In general, more hydrophobic lipopeptides will elute later than hydrophilic ones. Using this simple rule enables comparison of hydrophobicity by reduced retention times (t’R) and differences in retention time between the cyclic analog and its linear parent lipopeptide (Table 1). It can be deduced that the presence of cystine moiety has led to increased hydrophobicity. All cyclic lipopeptides are more hydrophobic than their linear counterparts but the effect of disulfide cyclization on retention is different in each pair. The highest increase in retention was noticed for the shortest lipopeptides L1 (C16-KKK-NH2) and C1 (C16-CKKKC-NH2). The differences between lipopeptides with one arginine residue indicate that its position is crucial for retention and therefore hydrophobicity. To learn how the arginine position affects hydrophobicity, the retention time of compound L2 (C16-KKKK-NH2) or C2 (C16-CKKKKC-NH2) was subtracted from that of the lipopeptides with one arginine residue, linear (L3, L4, L5, L6) or cyclic (C3, C4, C5, C6), respectively. In Figure 2 the effect of arginine position on retention time is related to unsubstituted lipopeptide.
To determine peptide hydrophobicity, a Waters Alliance e2695 system with a Waters 2998 PDA Detector (software-Empower 3, Waters, Milford, MA, USA) was used. All analyses were carried out on a Waters X-Bridge Shield RP-18 column (3.0 × 100 mm, 3.5 μm particle size, 130 Å pore size). The Shield Technology column with embedded polar groups was used to minimize interactions of unreacted silanol groups with basic lipopeptides. The peptides were dissolved in water (0.1% TFA, v/v) up to a concentration of 1 g/L. UV detection at 214 nm was used, and samples (10 μL) were eluted with a linear 20–65% acetonitrile gradient in deionized water over 30 min at 25.0 ± 0.1 °C. The mobile phase flow rate was 0.5 mL/min. Both eluents contained 0.1% (v/v) of TFA. Each peptide sample was analyzed in triplicate. Maximum standard deviation and coefficient of variation were 0.042 and 0.25%, respectively.

[2] = test system: Candida glabrata ATCC 15126; format: cell-based
Procedure: (§1) The Staphylococcus aureus ATCC 25923, Staphylococcus epidermidis ATCC 14990, Escherichia coli ATCC 25922, Pseudomonas aeruginosa ATCC 9027, Candida albicans ATCC 10231, Candida glabrata ATCC 15126, Candida lipolytica PCM 2680-FY, and Candida tropicalis PCM 2709-FY strains were acquired from the Polish Collection of Microorganisms (PCM, Polish Academy of Sciences, Wrocław, Poland) and from the American Type Culture Collection (ATCC). All the strains were stored at −80 °C in Roti-Store cryo vials and before the tests were transferred into fresh Mueller–Hinton broth (MHB, Biocorp, Warsaw, Poland) for bacteria or RPMI-1640 (Sigma-Aldrich, Steinheim, Germany) for fungi and incubated for 24 h at 37 °C. Then, the cultures were seeded on Mueller–Hinton agar (BioMaxima, Lublin, Poland) or Sabouraud dextrose agar (SDA, BioMaxima, Lublin, Poland) plates, respectively, and incubated as just mentioned. These agar cultures were used for further microbiological assays. Cell densities for all assays were adjusted spectrophotometrically (Multiskan GO Microplate Spectrophotometer, Thermo Fisher Scientific, Vantaa, Finland) at 600 and 660 nm for bacteria and fungi, respectively.
(§2) MBECs were determined on 96-well polystyrene flat-bottom plates. For this purpose, 24 h cultures of microorganisms were diluted to obtain final density 5.0 × 10^5 CFU/mL and 2.0 × 10^5 CFU/mL of bacteria and fungi, respectively. Briefly, 100 µL of cell suspension was added into the test plates. After 24 h of incubation at 37 °C the wells were rinsed three times with a phosphate buffer saline (PBS, pH 7.4) to remove non-adherent cells. Subsequently, 100 μL of the test compounds in concentration range (0.5–256 μg/mL) were added to each well. After 24 h of incubation at 37 °C, 20 μL of a cell viability reagent was added (resazurin, 4 g/L; Sigma Aldrich, St. Louis, MO, USA). The MBEC was read after 1 h. The determined values were recorded as the lowest concentration at which the reduction of resazurin (from blue to pink) was lower or equal to 10 ± 0.5% as compared to the positive (100%) and negative (0%) controls. The reduction was monitored by measuring absorbance at 570 nm (reduced) and 600 nm (oxidized) using a microplate spectrophotometer (Multiskan GO Microplate Spectrophotometer, Thermo Fisher Scientific, Vantaa, Finland). All experiments were conducted in triplicate.

[3] = test system: Candida lipolytica PCM 2680-FY; format: cell-based
Procedure: as §1, §2

[4] = test system: Candida tropicalis PCM 2709-FY; format: cell-based
Procedure: as §1, §2

[5] = test system: human cervical adenocarcinoma cell line (HeLa S3); test: MTT assay; format: cell-based; details: 24 h incubation at 37 °C, six replicates per concentration, repeated at least twice
Procedure: (§3) To assess the cytotoxicity of the test lipopeptides (IC50), the classic MTT assay on 96-well polystyrene plates was performed for human keratinocytes (HaCaT) and human cervical adenocarcinoma cell line (HeLa S3) acquired from the ATCC. The assay utilizes colorimetric determination of the cell metabolic activity and the color intensity reflects the number of live cells that can be measured spectrophotometrically. The cell line was cultured in a Dulbecco’s modified Eagle Medium (Invitrogen) supplemented with 10% fetal bovine serum (v/v), 100 units/mL of penicillin, 100 μg/mL of streptomycin, and 2 mM l-glutamine and was stored at 37 °C in a humidified 5% CO2 incubator. Briefly, a day after plating of 500 cells per well, a series of concentrations (0.1–200 μg/mL) of the test compounds were applied. DMSO was added to the control cells at a final concentration of 1.0% (v/v), which was related to the maximal concentration of the solvent compounds used in the experiment. After 24 h of incubation with the lipopeptides at 37 °C in a humidified 5% CO2 incubator, a medium containing 1 mg/mL of MTT (3-(4,5-dimethylthiazol-2-yl)-2,5-diphenyltetrazolium bromide) was added to the wells up to a final concentration of 0.5 mg/mL. Subsequently, the plates were incubated at 37 °C for 4 h. Then, the medium was removed by suction, and the formazan product was solubilized with DMSO. The background absorbance at 630 nm was subtracted from that at 570 nm for each well (Epoch, BioTek Instruments, Winooski, VT, USA). Six replicates were conducted for each concentration. All experiments were repeated at least twice and the resulting IC50 values were calculated with a GraFit 7 software (v. 7.0, Erithacus, Berkley, CA, USA).

[6] = test system: human keratinocytes (HaCaT); test: MTT assay; format: cell-based; details: 24 h incubation at 37 °C, six replicates per concentration, repeated at least twice
Procedure: as §3

[7] = 24 h biofilm on polystyrene plates, 24 h exposure at 37 °C, resazurin, triplicate

| SMILES | reduced retention time t’R [1] [min] | MBEC C. glabrata ([2]; ATCC 15126, 24 h) [µg/mL] | MBEC C. lipolytica ([3]; 24 h) [µg/mL] | MBEC C. tropicalis ([4]; PCM 2709-FY, 24 h) [µg/mL] | HeLa IC50 [5] [µg/mL] | HaCaT IC50 [6] [µg/mL] | ∆tR [1] | MBEC C. glabrata [2, 7] [µg/mL] | MBEC C. lipolytica [3, 7] [µg/mL] | MBEC C. tropicalis [4, 7] [µg/mL] |
| --- | --- | --- | --- | --- | --- | --- | --- | --- | --- | --- |
| CCCCCCCCCCCCCCCC(=O)N[C@@H](CCCNC(=N)N)C(=O)N[C@@H](CCCNC(=N)N)C(=O)N[C@@H](CCCCN)C(=O)N[C@@H](CCCCN)C(N)=O [L7, C16-RRKK-NH2] (Palmitoyl-RRKK-NH2) | 15.58 | 128 | 16 | 64 | 3.0 ± 0.4 | 8.1 ± 1.1 |  |  |  |  |
| CCCCCCCCCCCCCCCC(=O)N[C@H]1CSSC[C@@H](C(N)=O)NC(=O)[C@H](CCCNC(=N)N)NC(=O)[C@H](CCCCN)NC(=O)[C@H](CCCCN)NC(=O)[C@H](CCCCN)NC1=O [C6, C16-CKKKRC-NH2] (Palmitoyl-CKKKRC-NH2; disulfide 1-6) | 16.32 | 64 | 16 | 32 | 30.4 ± 2.5 | 45.7 ± 13.5 | +1.43 min |  |  |  |
| CCCCCCCCCCCCCCCC(=O)N[C@@H](CCCCN)C(=O)N[C@@H](CCCCN)C(=O)N[C@@H](CCCCN)C(N)=O [L1, C16-KKK-NH2] | 16.14 | 256 | 64 | 128 | 3.9 ± 1.1 | 5.2 ± 0.6 |  |  |  |  |
| CCCCCCCCCCCCCCCC(=O)N[C@H]1CSSC[C@@H](C(N)=O)NC(=O)[C@H](CCCCN)NC(=O)[C@H](CCCNC(=N)N)NC(=O)[C@H](CCCCN)NC(=O)[C@H](CCCCN)NC1=O [C5, C16-CKKRKC-NH2] (Palmitoyl-CKKRKC-NH2; disulfide 1-6) | 16.16 | 64 | 16 | 32 | 21.9 ± 4.5 | 12.9 ± 4.6 | +1.15 min |  |  |  |
| CCCCCCCCCCCCCCCC(=O)N[C@H]1CSSC[C@@H](C(N)=O)NC(=O)[C@H](CCCCN)NC(=O)[C@H](CCCCN)NC(=O)[C@H](CCCCN)NC(=O)[C@H](CCCNC(=N)N)NC1=O [C3, C16-CRKKKC-NH2] (Palmitoyl-CRKKKC-NH2; disulfide 1-6) | 16.51 | 32 | 16 | 32 | 38.8 ± 4.4 | 36.8 ± 2.7 | +1.30 min |  |  |  |
| CCCCCCCCCCCCCCCC(=O)N[C@H]1CSSC[C@@H](C(N)=O)NC(=O)[C@H](CCCCN)NC(=O)[C@H](CCCCN)NC(=O)[C@H](CCCNC(=N)N)NC(=O)[C@H](CCCNC(=N)N)NC1=O [C7, C16-CRRKKC-NH2] (Palmitoyl-CRRKKC-NH2; disulfide 1-6) | 16.83 | 64 | 16 | 32 | 20.9 ± 2.1 | 21.3 ± 8.2 | +1.25 min |  |  |  |
| CCCCCCCCCCCCCCCC(=O)N[C@H]1CSSC[C@@H](C(N)=O)NC(=O)[C@H](CCCCN)NC(=O)[C@H](CCCCN)NC(=O)[C@H](CCCCN)NC(=O)[C@H](CCCCN)NC1=O [C2, C16-CKKKKC-NH2] (Palmitoyl-CKKKKC-NH2; disulfide 1-6) | 15.95 |  |  |  | 17.9 ± 2.1 | 26.9 ± 1.9 | +1.18 min | 64 | 16 | 32 |
| CCCCCCCCCCCCCCCC(=O)N[C@@H](CCCCN)C(=O)N[C@@H](CCCCN)C(=O)N[C@@H](CCCCN)C(=O)N[C@@H](CCCCN)C(N)=O [L2, C16-KKKK-NH2] (Palmitoyl-KKKK-NH2) | 14.77 | 256 | 64 | 128 | 12.8 ± 1.1 | 23.5 ± 1.3 |  |  |  |  |
| CCCCCCCCCCCCCCCC(=O)N[C@@H](CCCCN)C(=O)N[C@@H](CCCCN)C(=O)N[C@@H](CCCNC(=N)N)C(=O)N[C@@H](CCCCN)C(N)=O [L5, C16-KKRK-NH2] (Palmitoyl-KKRK-NH2) | 15.01 | 256 | 64 | 128 | 6.2 ± 2.7 | 2.4 ± 0.4 |  |  |  |  |
| CCCCCCCCCCCCCCCC(=O)N[C@H]1CSSC[C@@H](C(N)=O)NC(=O)[C@H](CCCCN)NC(=O)[C@H](CCCCN)NC(=O)[C@H](CCCCN)NC1=O [C1, C16-CKKKC-NH2] (Palmitoyl-CKKKC-NH2; disulfide 1-5) | 18.05 | 256 | 64 | 128 | 25.5 ± 2.9 | 23.6 ± 6.0 | +1.91 min |  |  |  |
